The results in this text go back to US12655124B2, “Heterocyclic compounds as modulators of stimulator of interferon genes (STING)” (RYVU THERAPEUTICS S.A., priority 2019, dated 2026).

Structures are written as SMILES. Where a name gives a salt, the structure may show the parent alone.

human STING, sequence (Q86WV6 whole entry H232R): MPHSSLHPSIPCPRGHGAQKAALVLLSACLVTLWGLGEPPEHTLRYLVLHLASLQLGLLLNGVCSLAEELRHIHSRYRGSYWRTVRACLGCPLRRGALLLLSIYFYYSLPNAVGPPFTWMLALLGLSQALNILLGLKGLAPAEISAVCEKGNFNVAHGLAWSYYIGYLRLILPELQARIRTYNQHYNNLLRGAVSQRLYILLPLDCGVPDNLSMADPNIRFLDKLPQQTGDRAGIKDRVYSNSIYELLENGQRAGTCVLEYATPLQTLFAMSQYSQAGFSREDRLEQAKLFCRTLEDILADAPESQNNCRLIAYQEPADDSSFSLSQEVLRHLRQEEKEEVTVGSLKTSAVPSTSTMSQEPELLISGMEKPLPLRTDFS

The experiment concerns the target human STING (Homo sapiens, UniProt Q86WV6). In words: Fluorescence Thermal Shift assay (hSTING FTS binding assay).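 Also: STING preincubated with compound for 20 min in HEPES NaCl buffer pH 7.5.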 The conditions noted are these: ΔTm, STING 0.1 mg/mL, SyproOrange, 25 to 99° C. The procedure:
Fluorescence Thermal Shift Assay Compounds of the present invention were tested for binding to human STING in Fluorescence Thermal Shift assay. […] Final STING concentration was 0.1 mg/mL. Thermal unfolding was performed in Real-Time PCR QuantStudio 6 Flex System (Applied Biosystems), from 25 to 99° C., with continuous ramp mode and ramp rate 0.033° C./s. The data were analyzed using Protein Thermal Shift Software (ThermoFisher).
For `Cc1ccc(N2CCC[C@H](N(Cc3ccnc(C)c3)Cc3cn(C4CC4)c4cc(N5CC[C@@H](N)C(F)(F)C5)c(F)cc4c3=O)C2)cn1.Cl` (single isomer, unassigned) [Example 56], the “hSTING FTS binding assay (ΔT ° C.)” value is listed as “+++ (ΔTm≥20° C.)”. With `Cc1cc(CN(Cc2cn(C)c3ccccc3c2=O)[C@H]2CCCN(c3cccc(N)c3)C2)ccn1.Cl` [Example 1, 3-({[(3S)-1-(3-Aminophenyl)piperidin-3-yl][(2-methylpyridin-4-yl)methyl]amino}methyl)-1-methyl-1,4-dihydroquinolin-4-one Hydrochloride] the entry was “+ (ΔTm≤10° C.)”; with `Cc1cc(CN(Cc2cn(C)c3ccccc3c2=O)[C@H]2CCCN(c3ccc(N)nc3)C2)ccn1` [Example 2, 3-({[(3S)-1-(6-Aminopyridin-3-yl)piperidin-3-yl][(2-methylpyridin-4-yl)methyl]amino}methyl)-1-methyl-1,4-dihydroquinolin-4-one], “+++ (ΔTm≥20° C.)”; with `Cc1cc(CN(Cc2cn(C)c3ccccc3c2=O)[C@H]2CCCN(c3ccc(CN)nc3)C2)ccn1.Cl` [Example 3, 3-({[(3S)-1-[6-(Aminomethyl)pyridin-3-yl]piperidin-3-yl][(2-methylpyridin-4-yl)methyl]amino}methyl)-1-methyl-1,4-dihydroquinolin-4-one Hydrochloride], “+ (ΔTm≤10° C.)”. As to `Cc1ccc(N2CCC[C@H](N(Cc3ccnc(N)c3)Cc3cn(C4CC4)c4cc(F)c(F)cc4c3=O)C2)cn1` [Example 5, 3-({[(2-Aminopyridin-4-yl)methyl][(3S)-1-(6-methylpyridin-3-yl)piperidin-3-yl]amino}methyl)-1-cyclopropyl-6,7-difluoro-1,4-dihydroquinolin-4-one Hydrochloride], the “hSTING FTS binding assay (ΔT ° C.)” value is given as “+++ (ΔTm≥20° C.)”. Turning to `Cc1ccc(N2CCC[C@H](N(Cc3ccnc(C)c3)Cc3cn(C)c4cc(N5CCC(N)CC5)ccc4c3=O)C2)cn1.Cl` [Example 6, 7-(4-Aminopiperidin-1-yl)-1-methyl-3-({[(3S)-1-(6-methylpyridin-3-yl)piperidin-3-yl][(2-methylpyridin-4-yl)methyl]amino}methyl)-1,4-dihydroquinolin-4-one Hydrochloride], the “hSTING FTS binding assay (ΔT ° C.)” value is “++ (10<ΔTm<20° C.)”. In the case of `Cc1ccc(N2CCC[C@H](N(Cc3ccnc(C)c3)Cc3cn(C4CC4)c4cc(N)c(F)cc4c3=O)C2)cn1` [Example 7, 7-Amino-1-cyclopropyl-6-fluoro-3-({[(3S)-1-(6-methylpyridin-3-yl)piperidin-3-yl][(2-methylpyridin-4-yl)methyl]amino}methyl)-1,4-dihydroquinolin-4-one], the “hSTING FTS binding assay (ΔT ° C.)” value is on record as “+++ (ΔTm≥20° C.)”.

As for `Cc1ccc(N2CCC[C@H](N(Cc3ccnc(C)c3)Cc3cn(C4CC4)c4cc(NCCN)c(F)cc4c3=O)C2)cn1` [Example 8, 7-[(2-Aminoethyl)amino]-1-cyclopropyl-6-fluoro-3-({[(3S)-1-(6-methylpyridin-3-yl)piperidin-3-yl][(2-methylpyridin-4-yl)methyl]amino}methyl)-1,4-dihydroquinolin-4-one], the “hSTING FTS binding assay (ΔT ° C.)” value is “+++ (ΔTm≥20° C.)”.

Take `Cc1ccc(N2CCC[C@H](N(Cc3ccnc(C)c3)Cc3cn(C4CC4)c4cc(NCCN(C)C)c(F)cc4c3=O)C2)cn1` [Example 9, 1-Cyclopropyl-7-{[2-(dimethylamino)ethyl]amino}-6-fluoro-3-({[(3S)-1-(6-methylpyridin-3-yl)piperidin-3-yl][(2-methylpyridin-4-yl)methyl]amino}methyl)-1,4-dihydroquinolin-4-one]: the “hSTING FTS binding assay (ΔT ° C.)” value is recorded as “+++ (ΔTm≥20° C.)”. Consider `Cc1ccc(N2CCC[C@H](N(Cc3ccnc(C)c3)Cc3cn(C4CC4)c4cc(OCCN)c(F)cc4c3=O)C2)cn1` [Example 10, 7-(2-Aminoethoxy)-1-cyclopropyl-6-fluoro-3-({[(3S)-1-(6-methylpyridin-3-yl)piperidin-3-yl][(2-methylpyridin-4-yl)methyl]amino}methyl)-1,4-dihydroquinolin-4-one], for which the “hSTING FTS binding assay (ΔT ° C.)” value is recorded as “+++ (ΔTm≥20° C.)”. With `CNCCOc1cc2c(cc1F)c(=O)c(CN(Cc1ccnc(C)c1)[C@H]1CCCN(c3ccc(C)nc3)C1)cn2C1CC1.Cl` [Example 11, 1-Cyclopropyl-6-fluoro-7-[2-(methylamino)ethoxy]-3-({[(3S)-1-(6-methylpyridin-3-yl)piperidin-3-yl][(2-methylpyridin-4-yl)methyl]amino}methyl)-1,4-dihydroquinolin-4-one Hydrochloride] the entry was “+++ (ΔTm≥20° C.)”; with `Cc1ccc(N2CCC[C@H](N(Cc3ccnc(C)c3)Cc3cn(C4CC4)c4cc(N5CC[C@@H](N)C5)c(F)cc4c3=O)C2)cn1.Cl` [Example 12, 7-[(3R)-3-Aminopyrrolidin-1-yl]-1-cyclopropyl-6-fluoro-3-({[(3S)-1-(6-methylpyridin-3-yl)piperidin-3-yl][(2-methylpyridin-4-yl)methyl]amino}methyl)-1,4-dihydroquinolin-4-one Hydrochloride], “+++ (ΔTm≥20° C.)”; with `Cc1ccc(N2CCC[C@H](N(Cc3ccnc(C)c3)Cc3cn(C4CC4)c4cc(N5CC[C@H](N)C5)c(F)cc4c3=O)C2)cn1.Cl` [Example 13, 7-[(3S)-3-Aminopyrrolidin-1-yl]-1-cyclopropyl-6-fluoro-3-({[(3S)-1-(6-methylpyridin-3-yl)piperidin-3-yl][(2-methylpyridin-4-yl)methyl]amino}methyl)-1,4-dihydroquinolin-4-one Hydrochloride], “+++ (ΔTm≥20° C.)”. As for `Cc1ccc(N2CCC[C@H](N(Cc3ccnc(C)c3)Cc3cn(C4CC4)c4cc(N5CC[C@@H](O)C5)c(F)cc4c3=O)C2)cn1.Cl` [Example 14, 1-Cyclopropyl-6-fluoro-7-[(3R)-3-hydroxypyrrolidin-1-yl]-3-({[(3S)-1-(6-methylpyridin-3-yl)piperidin-3-yl][(2-methylpyridin-4-yl)methyl]amino}methyl)-1,4-dihydroquinolin-4-one Hydrochloride], the “hSTING FTS binding assay (ΔT ° C.)” value is recorded as “+++ (ΔTm≥20° C.)”. For the compound `Cc1ccc(N2CCC[C@H](N(Cc3ccnc(C)c3)Cc3cn(C4CC4)c4cc(N5CC[C@H](CN)C5)c(F)cc4c3=O)C2)cn1.Cl` [Example 15, 7-[(3R)-3-(Aminomethyl)pyrrolidin-1-yl]-1-cyclopropyl-6-fluoro-3-({[(3S)-1-(6-methylpyridin-3-yl)piperidin-3-yl][(2-methylpyridin-4-yl)methyl]amino}methyl)-1,4-dihydroquinolin-4-one Hydrochloride], the “hSTING FTS binding assay (ΔT ° C.)” value is “+++ (ΔTm≥20° C.)”. Consider `Cc1ccc(N2CCC[C@H](N(Cc3ccnc(C)c3)Cc3cn(C4CC4)c4cc(N5CCC[C@H](N)C5)c(F)cc4c3=O)C2)cn1` [Example 16, 7-[(3S)-3-Aminopiperidin-1-yl]-1-cyclopropyl-6-fluoro-3-({[(3S)-1-(6-methylpyridin-3-yl)piperidin-3-yl][(2-methylpyridin-4-yl)methyl]amino}methyl)-1,4-dihydroquinolin-4-one], for which the “hSTING FTS binding assay (ΔT ° C.)” value is given as “+++ (ΔTm≥20° C.)”.
